Key:
Assay type in all cases: in vivo, mouse
5×FAD mice [1] = assay: Microglia depletion with PLX5622 chow, microgliosis and Aβ load in the cortex; conditions: PLX5622 chow for 2.5 months, vs normal chow
Experimental: (§1) As previously published (110), brain sections were blocked for 1 hour at room temperature with 2% donkey serum, 1% bovine serum albumin, 0.1% triton, 0.05% tween in PBS prior to incubation with primary antibodies. The primary antibodies were then diluted in this block overnight at 4° C. Brain sections were stained with anti-Aβ (D54D2, Cell Signaling, 1:300 dilution) to label plaques. To assess neuronal cell death, sections were stained with anti-NeuN (MAβ377, Millipore Sigma, 1:500 dilution) and TUNEL (Millipore Sigma, 11684795910, according to the manufacturer's instructions). In order to analyze microglia, sections were stained with IBA1 (ab5076, Abcam, 1:300 dilution). Microglial proliferation was assessed using Ki67-EF660 (SolA15, Thermo Fisher, 1:100 dilution). Microglial iron accumulation was measured using Ferritin Heavy Chain (PA5-27500, Thermo Fisher, 1:500). Following primary antibody incubation, sections were then washed 3 times for 10 minutes at room temperature in PBS and 0.05% tween-20. After washing, the brain sections were incubated in respective donkey Alexa Fluor 488, 594, 647 anti-rabbit, -goat, -rat, -streptavidin, and-mouse (Thermo Fisher, 1:1000 dilution) for 2 hours at room temperature. Once again, brain sections were washed 3 times for 10 minutes at room temperature. […] Images were analyzed using FIJI software or Imaris software (9.5.1). […]

Card9−/−5×FAD mice [2] = assay: Microglia depletion with PLX5622 chow, microgliosis and Aβ load in the cortex (CARD9-deficient); conditions: PLX5622 chow for 2.5 months, vs control chow
Experimental: as §1

5×FAD mice [3] = assay: Intrahippocampal injection of pustulan, Aβ load in the hippocampus by immunofluorescence; conditions: 2-month-old 5×FAD mice, 2 μg pustulan intrahippocampal, 7 days post-injection, vs vehicle-treated hemisphere
Experimental: As previously published (110), brain sections were blocked for 1 hour at room temperature with 2% donkey serum, 1% bovine serum albumin, 0.1% triton, 0.05% tween in PBS prior to incubation with primary antibodies. The primary antibodies were then diluted in this block overnight at 4° C. Brain sections were stained with anti-Aβ (D54D2, Cell Signaling, 1:300 dilution) to label plaques. To assess neuronal cell death, sections were stained with anti-NeuN (MAβ377, Millipore Sigma, 1:500 dilution) and TUNEL (Millipore Sigma, 11684795910, according to the manufacturer's instructions). In order to analyze microglia, sections were stained with IBA1 (ab5076, Abcam, 1:300 dilution). Microglial proliferation was assessed using Ki67-EF660 (SolA15, Thermo Fisher, 1:100 dilution). Microglial iron accumulation was measured using Ferritin Heavy Chain (PA5-27500, Thermo Fisher, 1:500). Following primary antibody incubation, sections were then washed 3 times for 10 minutes at room temperature in PBS and 0.05% tween-20. After washing, the brain sections were incubated in respective donkey Alexa Fluor 488, 594, 647 anti-rabbit, -goat, -rat, -streptavidin, and-mouse (Thermo Fisher, 1:1000 dilution) for 2 hours at room temperature. Once again, brain sections were washed 3 times for 10 minutes at room temperature. […] Images were analyzed using FIJI software or Imaris software (9.5.1).
5×FAD and Card9^−/−5×FAD mice were anesthetized with a ketamine/xylazine cocktail before receiving a bilateral hippocampal injection of 2 μl of vehicle or 2 μg pustulan into the right and left hemisphere of the hippocampus (at +2 mm lateral, -2 mm posterior, and −2 mm ventral relative to the intersection of the coronal and sagittal suture (bregma) at a rate of 200 nl/min) using a stereotaxic frame (51730U, Stoelting) and nanoliter injector (NL2010MC2T, World Precision Instruments). […] Images were analyzed using FIJI software or Imaris software (9.5.1). […]

Card9−/−5×FAD mice [4] = assay: Intrahippocampal injection of pustulan, Aβ load in the hippocampus by immunofluorescence (CARD9-deficient control); conditions: 2-month-old Card9−/−5×FAD mice, 2 μg pustulan intrahippocampal, 7 days post-injection, vs vehicle-treated hemisphere
Experimental: as §1

Row | Molecule | Aβ plaque load in the cortex (5×FAD mice [1]) | Aβ plaque load in the cortex (Card9−/−5×FAD mice [2]) | Aβ coverage in the hippocampus (5×FAD mice [3]) | Aβ plaque volume in the hippocampus (5×FAD mice [3]) | number of Aβ plaques in the hippocampus (5×FAD mice [3]) | levels of Aβ in the hippocampus (Card9−/−5×FAD mice [4])
1 | COc1ncc(F)cc1CNc1ccc(Cc2c[nH]c3ncc(C)cc23)c(F)n1 [PLX5622] | significantly increased | did not significantly impact | – | – | – | –
2 | Pustulan | – | – | significantly reduced | lower plaque volume | fewer plaques | comparable levels of Aβ regardless of treatment
